Test results taken from US6858638B2, “Substituted indazoles, compositions containing them, method of production and use” (Aventis Pharma S.A., priority 2002, dated 2005).

Columns and labels:
Format in all cases: biochemical
Aurora2 kinase = target: T1, Aurora2 kinase (Homo sapiens, UniProt O14965); experiment: Aurora2 kinase radioactivity scintillation assay using nickel chelate (NuMA substrate); settings: 10 μM; read-out: Aurora2 % inhib at 10 μM
T1 construct: A complete recombinant Aurora2 enzyme; His tag (N); made in house; host or cells: E. coli
T1 sequence (O14965 1-403): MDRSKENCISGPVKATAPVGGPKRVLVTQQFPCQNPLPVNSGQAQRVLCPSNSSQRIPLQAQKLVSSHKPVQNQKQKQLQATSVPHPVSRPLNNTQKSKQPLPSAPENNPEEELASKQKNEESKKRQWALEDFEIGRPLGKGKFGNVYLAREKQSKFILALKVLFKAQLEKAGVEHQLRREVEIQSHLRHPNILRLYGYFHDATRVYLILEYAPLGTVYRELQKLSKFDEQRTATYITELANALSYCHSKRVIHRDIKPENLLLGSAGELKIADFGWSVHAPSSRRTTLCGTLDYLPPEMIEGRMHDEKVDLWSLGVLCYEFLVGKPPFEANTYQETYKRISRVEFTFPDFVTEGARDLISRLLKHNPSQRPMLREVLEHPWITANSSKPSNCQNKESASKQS
Summary of the method: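 His-tagged full-length Aurora2 (0.02 μM, E. coli) phosphorylating His-tagged NuMA C-terminal fragment (0.5 μM) with 1 μM ATP plus [33P]-ATP, 30 min at 37 °C, pH 7.5 Tris buffer with MgCl2. Nickel-chelate scintillation read; percent inhibition versus no-compound control.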

human FAK = target: T2, human FAK (Homo sapiens, UniProt Q05397); experiment: FAK autophosphorylation inhibition, time resolved fluorescence (HTRF) assay; settings: for inhibition at 30 µM: 30 μM (values marked *), read-out: FAK % inhib at 30* μM; for inhibition at 10 µM: 10 μM (values without asterisk), read-out: FAK % inhib at 10 μM
T2 construct: The complete cDNA of human FAK; made in house; host or cells: baculovirus expression system (vector pFastBac HTc)
T2 sequence (Q05397 whole entry): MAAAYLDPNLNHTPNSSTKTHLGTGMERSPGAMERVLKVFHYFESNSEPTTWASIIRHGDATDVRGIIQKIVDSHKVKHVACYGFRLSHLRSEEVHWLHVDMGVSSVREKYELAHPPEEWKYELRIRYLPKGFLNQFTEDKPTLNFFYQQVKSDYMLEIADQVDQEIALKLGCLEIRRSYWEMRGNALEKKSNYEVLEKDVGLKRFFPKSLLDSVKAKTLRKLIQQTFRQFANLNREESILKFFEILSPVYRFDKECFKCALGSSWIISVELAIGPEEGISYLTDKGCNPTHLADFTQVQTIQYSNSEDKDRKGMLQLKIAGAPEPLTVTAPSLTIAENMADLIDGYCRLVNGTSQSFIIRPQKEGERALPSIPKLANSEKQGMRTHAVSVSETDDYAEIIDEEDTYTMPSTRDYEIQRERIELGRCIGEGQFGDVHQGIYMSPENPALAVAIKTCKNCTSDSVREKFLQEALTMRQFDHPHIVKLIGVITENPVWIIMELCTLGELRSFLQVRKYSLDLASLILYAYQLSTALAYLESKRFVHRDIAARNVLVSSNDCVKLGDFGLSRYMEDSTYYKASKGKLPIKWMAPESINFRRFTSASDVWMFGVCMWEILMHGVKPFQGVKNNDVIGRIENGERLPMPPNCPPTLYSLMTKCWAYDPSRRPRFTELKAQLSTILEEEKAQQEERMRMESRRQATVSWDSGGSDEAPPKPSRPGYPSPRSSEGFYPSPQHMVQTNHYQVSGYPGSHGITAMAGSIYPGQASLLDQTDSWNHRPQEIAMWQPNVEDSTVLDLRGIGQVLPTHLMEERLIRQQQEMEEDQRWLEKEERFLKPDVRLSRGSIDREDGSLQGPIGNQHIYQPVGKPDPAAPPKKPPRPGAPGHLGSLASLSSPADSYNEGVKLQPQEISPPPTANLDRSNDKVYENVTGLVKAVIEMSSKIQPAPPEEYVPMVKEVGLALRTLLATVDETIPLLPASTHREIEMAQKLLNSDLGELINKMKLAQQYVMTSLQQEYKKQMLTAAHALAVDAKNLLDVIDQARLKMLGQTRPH
Summary of the method: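 His-tagged full-length human FAK from baculovirus (6.6 µg/ml) self-phosphorylates with 15 µM ATP in HEPES pH 7.2, MgCl2, vanadate, 1 h at 37 °C. HTRF detection (Eu-anti-phosphotyrosine / XL665-anti-His), 665/620 nm ratio; % inhibition vs untreated control, duplicate mean.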

[1] = target: T3, human IGF1R cytoplasmic domain (Homo sapiens, UniProt P08069); experiment: IGF1R autophosphorylation inhibition, time resolved fluorescence (HTRF) assay; settings: 10 μM; read-out: IGF1R % inhib at 10 μM
T3 construct: The human IGF1R cytoplasmic domain was cloned; made in house; host or cells: SF21 insect cells (baculovirus)
T3 sequence (P08069 960-1367 limits assumed): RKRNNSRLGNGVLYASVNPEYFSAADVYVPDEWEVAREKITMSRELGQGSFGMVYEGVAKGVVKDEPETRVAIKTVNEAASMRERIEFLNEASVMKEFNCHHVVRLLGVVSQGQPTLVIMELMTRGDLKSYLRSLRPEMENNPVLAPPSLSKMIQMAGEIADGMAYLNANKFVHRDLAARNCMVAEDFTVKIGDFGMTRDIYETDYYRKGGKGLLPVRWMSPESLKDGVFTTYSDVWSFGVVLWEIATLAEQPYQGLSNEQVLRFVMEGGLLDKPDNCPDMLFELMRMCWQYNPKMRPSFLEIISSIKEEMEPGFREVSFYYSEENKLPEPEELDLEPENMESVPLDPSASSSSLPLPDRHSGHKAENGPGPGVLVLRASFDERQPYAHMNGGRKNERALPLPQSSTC
Summary of the method: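 GST-tagged human IGF1R cytoplasmic domain from SF21 cells incubated with compound in 50 mM Hepes pH 7.5, 5 mM MnCl2, 50 mM NaCl, […] ATP. Autophosphorylation detected by HTRF (Eu-K anti-phosphotyrosine, XL665 anti-GST) after EDTA/KF stop; percentage inhibition versus no-compound control.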

Structure (SMILES) | inhibition at 10 µM (Aurora2 kinase) [%] | inhibition at 30 µM (human FAK) [%] | inhibition at 10 µM (human FAK) [%] | inhibition at 10 µM [1] [%]
CS(=O)(=O)c1ccccc1S(=O)(=O)Nc1ccc2[nH]nc(Cl)c2c1 [Example 1, N-(3-Chloro-1H-indazol-5-yl)-2-methylsulfonylbenzenesulfonamide] | 86 | 70 | – | –
O=S(=O)(Nc1ccc2[nH]nc(Cl)c2c1)c1cccc(F)c1 [Example 3, N-(3-Chloro-1H-indazol-5-yl)-3-fluorobenzenesulfonamide] | 46 | 71 | – | –
O=S(=O)(Nc1ccc2[nH]nc(-c3ccccc3)c2c1)c1cccc(F)c1 [Example 6, 3-Fluoro-N-(3-phenyl-1H-indazol-5-yl)benzenesulfonamide] | 95 | – | 82 | –
CS(=O)(=O)c1ccccc1S(=O)(=O)Nc1ccc2[nH]nc(-c3ccccc3)c2c1 [Example 7, 2-Methylsulfonyl-N-(3-phenyl-1H-indazol-5-yl)benzenesulfonamide] | 97 | – | 89 | –
O=S(=O)(Nc1ccc2[nH]nc(-c3ccccc3)c2c1)c1ccc(Cl)c(Cl)c1 [Example 8, 3,4-Dichloro-N-(3-phenyl-1H-indazol-5-yl)benzenesulfonamide] | 59 | 76 | – | –
Cc1n[nH]c2ccc(NS(=O)(=O)c3cccc(F)c3)cc12 [Example 9, 3-Fluoro-N-(3-methyl-1H-indazol-5-yl)benzenesulfonamide] | 61 | 68 | – | –
Cc1n[nH]c2ccc(NS(=O)(=O)c3ccccc3S(C)(=O)=O)cc12 [Example 10, 2-Methylsulfonyl-N-(3-methyl-1H-indazol-5-yl)benzenesulfonamide] | 90 | 66 | – | –
CS(=O)(=O)c1ccccc1S(=O)(=O)Nc1ccc2[nH]ncc2c1 [Example 13, 2-Methylsulfonyl-N-(1H-indazol-5-yl)benzenesulfonamide] | 76 | 83 | – | –
Nc1n[nH]c2ccc(NS(=O)(=O)c3cccc(F)c3)cc12 [Example 26, N-(3-Amino-1H-indazol-5-yl)-3-fluorobenzenesulfonamide] | 95 | – | 96 | 34
CS(=O)(=O)c1ccccc1S(=O)(=O)Nc1ccc2[nH]nc(-c3ccc(Cl)cc3)c2c1 [Example 30, N-[3-(4-Chlorophenyl)-1H-indazol-5-yl]-2-methylsulfonylbenzenesulfonamide] | 100 | – | 88 | 96
COc1ccc(-c2n[nH]c3ccc(NS(=O)(=O)c4ccccc4S(C)(=O)=O)cc23)cc1 [Example 32, N-[3-(4-Methoxyphenyl)-1H-indazol-5-yl]-2-methylsulfonylbenzenesulfonamide] | 92 | – | 97 | 93
CS(=O)(=O)c1ccccc1S(=O)(=O)Nc1ccc2[nH]nc(-c3ccc(F)cc3)c2c1 [Example 33, N-[3-(4-Fluorophenyl)-1H-indazol-5-yl]-2-methylsulfonylbenzenesulfonamide] | 89 | – | 94 | 94
CS(=O)(=O)c1ccccc1S(=O)(=O)Nc1ccc2[nH]nc(NCc3ccccc3)c2c1 [Example 36, N-(3-Benzylamino-1H-indazol-5-yl)-2-methylsulfonylbenzenesulfonamide] | 80 | – | 92 | 92
CNc1n[nH]c2ccc(NS(=O)(=O)c3ccccc3S(C)(=O)=O)cc12 [Example 37, N-(3-Methylamino-1H-indazol-5-yl)-2-methylsulfonylbenzenesulfonamide] | 36 | – | 67 | 51
CS(=O)(=O)c1ccccc1S(=O)(=O)Nc1ccc2[nH]nc(N)c2c1 [Example 39, N-(3-Amino-1H-indazol-5-yl)-2-methylsulfonylbenzenesulfonamide] | 81 | – | 96 | 72
Nc1n[nH]c2ccc(NS(=O)(=O)c3c(F)cccc3F)cc12 [Example 40, N-(3-Amino-1H-indazol-5-yl)-2,6-difluorobenzenesulfonamide] | 70 | – | 55 | 12
Nc1n[nH]c2ccc(NS(=O)(=O)c3c(Cl)cccc3Cl)cc12 [Example 41, N-(3-Amino-1H-indazol-5-yl)-2,6-dichlorobenzenesulfonamide] | 90 | – | 71 | 18
Nc1n[nH]c2ccc(NS(=O)(=O)c3cc(F)cc(F)c3)cc12 [Example 42, N-(3-Amino-1H-indazol-5-yl)-3,5-difluorobenzenesulfonamide] | 50 | – | 100 | 0
CS(=O)(=O)c1ccccc1S(=O)(=O)Nc1ccc2[nH]nc(-c3ccoc3)c2c1 [Example 52, N-(3-Furan-3-yl-1H-indazol-5-yl)-2-methylsulfonylbenzenesulfonamide] | 84 | – | 93 | 80
CS(=O)(=O)c1ccccc1S(=O)(=O)Nc1ccc2[nH]nc(-c3ccco3)c2c1 [Example 53, N-(3-Furan-2-yl-1H-indazol-5-yl)-2-methylsulfonylbenzenesulfonamide] | 91 | – | 96 | 76
CS(=O)(=O)c1ccccc1S(=O)(=O)Nc1ccc2[nH]nc(-c3ccncc3)c2c1 [Example 54, 2-Methylsulfonyl-N-(3-pyridin-4-yl-1H-indazol-5-yl)benzenesulfonamide] | 100 | – | 96 | 87
COC(=O)c1cccc(-c2n[nH]c3ccc(NS(=O)(=O)c4ccccc4S(C)(=O)=O)cc23)c1 [Example 55, Methyl 3-[5-(2-methylsulfonylbenzenesulfonamino)-1H-indazol-3-yl]benzoate] | 94 | – | 98 | 64
CS(=O)(=O)c1ccccc1S(=O)(=O)Nc1ccc2[nH]nc(-c3ccc[nH]3)c2c1 [Example 60, 2-Methylsulfonyl-N-[3-(1H-pyrrol-2-yl)-1H-indazol-5-yl]benzenesulfonamide] | 100 | – | 99 | 99
CS(=O)(=O)c1ccccc1S(=O)(=O)Nc1ccc2[nH]nc(-c3cc4ccccc4[nH]3)c2c1 [Example 61, N-[3-(1H-Indol-2-yl)-1H-indazol-5-yl]-2-methylsulfonylbenzenesulfonamide] | 100 | – | 99 | 99
CS(=O)(=O)c1ccccc1S(=O)(=O)Nc1ccc2[nH]nc(-c3cccc(N)c3)c2c1 [Example 62, N-[3-(3-Aminophenyl)-1H-indazol-5-yl]-2-methylsulfonylbenzenesulfonamide] | 100 | – | 99 | 88
CN(C)c1ccc(-c2n[nH]c3ccc(NS(=O)(=O)c4ccccc4S(C)(=O)=O)cc23)cc1 [Example 63, N-[3-(4-Dimethylaminophenyl)-1H-indazol-5-yl]-2-methylsulfonylbenzenesulfonamide] | 100 | – | 94 | 81
CS(=O)(=O)c1ccccc1S(=O)(=O)Nc1ccc2[nH]nc(-c3cc4ccccc4s3)c2c1 [Example 65, N-(3-Benzo[b]thiophen-2-yl-1H-indazol-5-yl)-2-methylsulfonylbenzenesulfonamide] | 100 | – | 86 | 63
CS(=O)(=O)c1ccccc1S(=O)(=O)Nc1ccc2[nH]nc(-c3ccc(N)cc3)c2c1 [Example 70, N-[3-(4-Aminophenyl)-1H-indazol-5-yl]-2-methylsulfonylbenzenesulfonamide] | 98 | – | 99 | 85
CS(=O)(=O)c1ccccc1S(=O)(=O)Nc1ccc2[nH]nc(-c3cccc(C#N)c3)c2c1 [Example 71, N-[3-(3-Cyanophenyl)-1H-indazol-5-yl]-2-methylsulfonylbenzenesulfonamide] | 93 | – | 97 | 90
